In experiment [1] the test system is Staphylococcus aureus (ATCC 43300, MRSA). In words: In vivo efficacy in MRSA-infected moth larvae. Also on record: species or system Galleria mellonella. Conditions: 24 h after drug administration; vs 10 % DMSO control; rifampicin 0.4 mg/mL, 10 µL. As to the method:
Ethics Committee was obtained for use of human blood for haemolysis studies (approval number […]
G. mellonella larvae were reared in controlled environmental room at Macquarie University, Sydney, Australia at 26 °C and 65% humidity with a 12-hours light/dark cycle. Larvae (~200 mg) were individually injected with 10 µL of chemical into the last right proleg using a 100 μL syringe (Hamilton Ltd). The […]
Each compound was dissolved in DMSO and diluted to final concentrations of 1 µM, 100 µM and 10 mM. We injected 5 larvae for each dilution of each compound.
Larvae injected with different dilutions of DMSO (10-1, 10-3 and 10-5) were included as negative controls.
Following injection, the larvae were incubated at 26 °C and monitored every 24 h for 4 days. Larval performance was assessed according to the G. mellonella Health Index Scoring System.[1] The experiments were repeated three separate times.
Galleria larvae (weighing between 200-250 mg) were infected with […] cells of Staphylococcus aureus (ATCC 43300, MRSA) (suspended in 10 µL PBS) and incubated at 37 °C. Two hours later, 10 µL compounds of either Pt1 or Pt2 (0.4 mM) in 10% DMSO was injected to the other proleg of the larvae.
Larvae injected with 10% DMSO and Rifampicin (0.4 mg/mL) were included as controls. […] Bacterial number was determined by drop plate method. […] Bacterial number was counted after incubation for 24 h.

The nature of experiment [2]: Antimicrobial activity of cisplatin in all assays of the paper. It is filed as cell-based. How it is done: Following a protocol previously reported by us we used larvae of the greater wax moth Galleria mellonella as a model organism for in vivo toxicity and efficacy.[20] […] Briefly, stock solutions of Pt1 and Pt2 were prepared in DMSO and diluted to final concentrations of 0.4 mM, 100 μM, 10 μM and 1 μM. Due to solubility limitations higher concentrations could not be evaluated. For each concentration five larvae were injected with 10 μL and monitored for 96 hours for survival and health using the G. mellonella Health Index Scoring System.[22]

The source of these data is article PMC8596843, “Platinum Cyclooctadiene Complexes with Activity against Gram‐positive Bacteria” (Chemmedchem, 2021).

As for `CO[C@H]1/C=C/O[C@@]2(C)Oc3c(C)c(O)c4c(O)c(c(/C=N/N5CCN(C)CC5)c(O)c4c3C2=O)NC(=O)/C(C)=C\C=C\[C@H](C)[C@H](O)[C@@H](C)[C@@H](O)[C@@H](C)[C@H](OC(C)=O)[C@@H]1C` [Rifampicin], the “reduction in CFU (bacterial load per larva)” value in experiment [1] is on record as 2 log.
Consider `N.N.[Cl][Pt][Cl]` [cisplatin], for which, in experiment [2], the antimicrobial activity result is recorded as “no antimicrobial activity”.
